Where a SMILES comes first, the peptide text is derived from it. The star is where a group is joined. Oxazole(5-CO) = O=C(c1cnco1)*; Crotonyl(E) = C/C=C/C(=O)*; 2Furoyl = O=C(c1ccco1)*; Butyryl = CCCC(=O)*
The compounds below were run against T1, AF9 YEATS (His-AF9) (Homo sapiens, UniProt P42568) (assay: Biolayer interferometry (BLI) binding to AF9 YEATS).
T1 construct: His-AF9 (aa 1-149, EpiCypher); purchased EpiCypher
T1 sequence (P42568 1-149): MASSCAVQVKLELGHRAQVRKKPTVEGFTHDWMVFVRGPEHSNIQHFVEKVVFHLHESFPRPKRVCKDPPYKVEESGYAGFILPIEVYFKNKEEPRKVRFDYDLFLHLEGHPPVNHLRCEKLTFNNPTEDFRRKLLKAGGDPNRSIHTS
Protocol: These potent inhibitors were then tested to confirm their selectivity for ENL YEATS over AF9 YEATS since the two YEATS domains share high sequence and structure homology. One potential of using ncAA-containing phage display for active site-directed ligand search is the possibility of amino acids flanking the ncAA in a selected peptide to selectively engage the target over a close homologue. We wanted to validate this potential as well. Selective targeting of ENL YEATS is also preferred in leukemia interventions as it plays a pivotal role in the progression and maintenance of several AMLs and poses minimal harm to normal hematopoietic stem cells upon inhibition. […] We propose that the selectivity arises from the peptide residues interacting with surface areas adjacent to the active site of ENL YEATS. […] Similarly, BLI analyses were conducted to examine preferential binding of inhibitors to ENL YEATS. […] Two previous publications have documented peptide-based YEATS inhibitors featuring alkylated lysine residues.[42],[43] […]
Biolayer Interferometry to Validate ENL Ligands:
His-ENL, His-AF9 (aa 1-149, EpiCypher), His-GAS41 (aa 15-160, EpiCypher), and YEATS2-His (aa 200-345, EpiCypher) were reconstituted in water and diluted into assay buffer (20mM Tris, 300 mM NaCl, pH 7.9) for immobilization onto Octet Ni-NTA biosensors (Sartorius). Lyophilized peptides were dissolved in DMF and diluted to designated concentrations in assay buffer. Biolayer interferometry assays were performed in 96 well plates (GreinerBio-One, polypropylene, flat-bottom) using an Octet Red96 System (Sartorius). Wells were filled with 200 μL of assay buffer, blocking buffer (assay buffer + 0.1% BSA), protein solution, peptide solution, regeneration solution, and reload solution. For immobilization, His-tagged proteins were immobilized onto Ni-NTA sensors at 20 for 600 s. Sensors were then dipped into blocking buffer for 180 s, assay […] buffer for 300 s, peptide solution for 300 s, and back to assay buffer for 300 s. If multiple samples were tested, Ni-NTA sensors can be reconditioned in regeneration (10 mM glycine, pH 1.7) solution followed by reload solution (10 mM NiCl2) for 30 and 60 s, respectively. Measurements were carried out at 30 °C. Data were analyzed within the ForteBio Data Analysis software. […]
The AlphaScreen assay was carried out in 384-well plates. […] AlphaScreen-signals were detected by a multi-mode microplate reader (BioTeK Synergy Neo2) equipped with an Alpha-laser (PerkinElmer). The KD value was determined from the plot using nonlinear regression of variable slope (four parameters) and curve fitting performed in GraphPad Prism. […]
The AlphaScreen assay conditions are essential the same as the previous described. […] IC50 values were determined from the plot using […]

SMILES | Kd
CCCC(=O)NCCCC[C@H](NC(=O)[C@H](Cc1ccc(O)cc1)NC(=O)[C@H](CS)NC(=O)[C@H](Cc1ccc(O)cc1)NC(=O)[C@@H](NC(=O)[C@H](CC(=O)O)NC(=O)[C@@H](N)Cc1ccc(O)cc1)C(C)C)C(N)=O [ENL-S1] (H-YDVYCYK(Butyryl)-NH2) | 205 nM
C/C=C/C(=O)NCCCC[C@H](NC(=O)[C@H](Cc1ccc(O)cc1)NC(=O)[C@H](CS)NC(=O)[C@H](Cc1ccc(O)cc1)NC(=O)[C@@H](NC(=O)[C@H](CC(=O)O)NC(=O)[C@@H](N)Cc1ccc(O)cc1)C(C)C)C(N)=O [ENL-S1c] (H-YDVYCYK(Crotonyl(E))-NH2) | 147 nM
CC(C)[C@H](NC(=O)[C@H](CC(=O)O)NC(=O)[C@@H](N)Cc1ccc(O)cc1)C(=O)N[C@@H](Cc1ccc(O)cc1)C(=O)N[C@@H](CS)C(=O)N[C@@H](Cc1ccc(O)cc1)C(=O)N[C@@H](CCCCNC(=O)c1ccco1)C(N)=O [ENL-S1f] (H-YDVYCYK(2Furoyl)-NH2) | 144 nM
CC(C)[C@H](NC(=O)[C@H](CC(=O)O)NC(=O)[C@@H](N)Cc1ccc(O)cc1)C(=O)N[C@@H](Cc1ccc(O)cc1)C(=O)N[C@@H](CS)C(=O)N[C@@H](Cc1ccc(O)cc1)C(=O)N[C@@H](CCCCNC(=O)c1cnco1)C(N)=O [ENL-S1o] (H-YDVYCYK(Oxazole(5-CO))-NH2) | 55.1 nM
